Test results reported in patent US10766940B2, “Brain penetrant amylin receptor based peptides for Alzheimer's disease” (The Governors of the University of Alberta, priority 2016, dated 2020).
Residues, ends and D or L forms follow the SMILES beside them. No end group written: not given here.

How the values were obtained:
[1] = tested on: h-Amylin depression of hippocampal LTP; experiment: Hippocampal slice electrophysiology, long-term potentiation (LTP); set-up: species or system mouse; details: for reversal of h-Amylin reduction in LTP: 250 nM peptide perfused 5 min prior to 50 nM h-Amylin; for effect of peptide alone on LTP: 250 nM, mouse hippocampal slice
Protocol: Brains were quickly removed from mice following decapitation, placed in a cold artificial cerebral spinal fluid (aCSF) on a vibratome chamber, and transverse sections cut through the hippocampus. The aCSF contained (in millimolar 124 NaCl, 3 KCl, 2.4 CaCl2, 2 MgCl2, 1.25 NaH2PO4, 26 NaHCO3, and 10 D-glucose and was equilibrated with 95% 02 and 5% CO2. Hippocampal slices (400-μm thick) were maintained in aCSF-filled holding chamber at room temperature for at least 1 h and individually transferred to the submerged glass bottom recording chamber, which was constantly perfused with aCSF (2 ml/min) at 30° C. Field excitatory postsynaptic potential (fEPSP) was recorded with a metallic (Pt/Ir) electrode (FHC, Bowdoin, Me.) from the stratum radiatum layer of Cornu ammonis 1 region of the hippocampus (CA1) area, and the Schaffer collateral afferents were stimulated with 100-μs test pulses via a bipolar cluster electrode (FHC). For long-term potentiation (LTP) experiments, the stimulus strength was set to elicit 40-50% of the maximum fEPSP amplitude and test pulses were delivered to Schaffer collaterals once every 30 s. LTP was induced by 3-theta-burst stimulation (3-TBS) protocol (each burst consisted of four pulses at 100 Hz with a 200-ms interburst interval). Before 3-TBS or drug application, the responses were monitored for at least 10 min to ensure a stable baseline of fEPSP.
Soluble oligomeric Aβ1-42, Fragments R5, R10, R11 and h-Amylin were used. Aβ1-42 was purchased from rPeptide, and h-Amylin were purchased from American Peptide. All drugs and chemicals were applied directly to the slice via bath perfusion, which allowed for a complete exchange of the perfusate in less than a minute and a half.

[2] = Ex vivo brain imaging of peptide fragments after ip injection, wild-type mice; format: in vivo, mouse
Protocol: For ex vivo imaging experiments and peptide brain uptake, age matched 6-month-old wild-type littermate (C57BL/6 background) mice were used. […] After 2 hours the mice were then sacrificed to collect their brains, and imaged using the Kodak imager as described above, but with an exposure time of 3 min per image for NIRF image.
For ex vivo histological studies, brains were excised, embedded in OCT, then sliced into 20-μm slices, co-stained with DAPI in mounting medium.
Mice were injected with a single dose and then sacrificed, and the brains were extracted after 2 hours from injection. Fluorescence in brains was quantified as previously described.

[3] = molecular target: T1, AMY3 receptor (CTR+RAMP3), HEK293-AMY3 cells (Homo sapiens, UniProt O60896+P30988); experiment: Peptide array-cell binding assay, AMY3 cells; details: membrane-bound peptides, GFP cells
T1 construct: expressed in transfected cells; AMY3-293 / AMY3-HEK)
T1 sequence (P30988 25-474): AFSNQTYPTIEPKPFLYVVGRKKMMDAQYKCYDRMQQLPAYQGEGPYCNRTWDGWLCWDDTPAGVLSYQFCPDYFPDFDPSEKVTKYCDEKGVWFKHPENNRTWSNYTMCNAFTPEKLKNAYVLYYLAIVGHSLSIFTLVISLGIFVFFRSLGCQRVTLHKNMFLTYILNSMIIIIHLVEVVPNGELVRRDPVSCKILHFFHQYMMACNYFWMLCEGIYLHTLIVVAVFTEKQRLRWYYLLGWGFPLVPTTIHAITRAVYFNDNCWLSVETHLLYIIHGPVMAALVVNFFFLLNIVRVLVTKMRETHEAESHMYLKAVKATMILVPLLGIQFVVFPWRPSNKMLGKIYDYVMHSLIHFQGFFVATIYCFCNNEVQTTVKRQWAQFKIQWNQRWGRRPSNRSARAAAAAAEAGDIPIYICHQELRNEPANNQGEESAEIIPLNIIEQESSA
T1 sequence (O60896 24-148 partner): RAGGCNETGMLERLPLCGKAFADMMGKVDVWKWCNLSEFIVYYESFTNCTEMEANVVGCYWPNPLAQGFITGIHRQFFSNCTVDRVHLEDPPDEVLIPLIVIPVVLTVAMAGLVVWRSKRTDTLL
Text: A peptide array library derived from AC253 peptide sequence comprising 14 short peptide sequences namely, R1-R14 (R-R13 are 12 amino acids, peptide R14 is 14 aa), was synthesized in duplicate on a cellulose membrane using SPOT synthesis. Briefly, peptide fragments were designed by selecting the first 12 amino acids from N-terminus, skipping one amino acid and moving towards C-terminus to yield 13 sequences R1-R13, and peptide R14 is the first 14 amino acid of the N-terminus region of AC253. The peptide array was synthesized on a PEG-500-derivatized cellulose membrane with a free amino terminal group using a semiautomatic robot AutoSpot ASP222 (Intavis AG, Germany). Synthesis of peptides on PEG500 derivatised cellulose membrane was started by attaching first β-alanine residue (linker) to the cellulose membrane and subsequently peptides synthesized from the C-terminus. […]
To screen the peptide library for amylin receptor binding affinity, transfected GFP-positive Human Embryonic Kidney 293 cells that express AMY3 receptor (CTR+RAMP3) was used. […] The peptide array membrane was incubated with 20 ml GFP-cells (75,000/ml) in serum free media for 3 hr, and after washing, the net fluorescence intensity of each peptide spot due to bound cells was quantified using a Kodak imager. […] Duplicate peptide spots, two scans, and two different experiments were used to calculate net fluorescence intensity. […]

| Molecule | reversal of h-Amylin reduction in LTP [1] | effect of peptide alone on LTP [1] | brain permeability, imaging of the intact brain ([2]; 0.1 mmol ip, 2 hr post-injection, tested alongside Davlintide) | brain permeability compared to AC253 ([2]; 2 hr post-ip injection, wild-type mice) | binding to HEK293-AMY3 cells on peptide array (fluorescence) [3] |
| --- | --- | --- | --- | --- | --- |
| CC(C)C[C@H](NC(=O)[C@H](CCC(=O)O)NC(=O)[C@H](CCC(N)=O)NC(=O)[C@@H](N)CO)C(=O)N[C@@H](Cc1c[nH]cn1)C(=O)N[C@@H](CCCNC(=N)N)C(=O)N[C@@H](CC(C)C)C(=O)N[C@@H](CCC(N)=O)C(=O)N[C@H](C(=O)N[C@@H](Cc1ccc(O)cc1)C(=O)N1CCC[C@H]1C(=O)N[C@@H](CCCNC(=N)N)C(N)=O)[C@@H](C)O [R5] (H-SQELHRLQTYPR-NH2; N-terminus assumed) | significantly reversed | did not impair LTP | marked brain permeability | marked increase in brain permeability | most significant binding |
| LGRLSQELHRLQTY (LGRLSQELHRLQTY-NH2) [R14] | significantly reversed | did not impair LTP | – | – | most significant binding |
